#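 48-hour exposure; five concentrations; linearly interpolated endpoints. TGI marks complete inhibition of growth.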
# Tests used:
# Assay in all cases: DTP human tumour cell line panel, 48 h
# [1] = system: 786-0 renal
# [2] = system: A498 renal
# [3] = system: A549 NSCLC
# [4] = system: ACHN renal
# [5] = system: BT-549 breast
# [6] = system: CAKI-1 renal
# [7] = system: CCRF-CEM leukemia
# [8] = system: COLO 205 colon
# [9] = system: DU-145 prostate
# [10] = system: EKVX NSCLC
# [11] = system: HCC-2998 colon
# [12] = system: HCT-116 colon
# [13] = system: HCT-15 colon
# [14] = system: HL-60(TB) leukemia
# [15] = system: HOP-62 NSCLC
# [16] = system: HOP-92 NSCLC
# [17] = system: HS 578T breast
# [18] = system: HT29 colon
# [19] = system: IGROV1 ovarian
# [20] = system: K-562 leukemia
# [21] = system: KM12 colon
# [22] = system: LOX IMVI melanoma
# [23] = system: M14 melanoma
# [24] = system: MALME-3M melanoma
# [25] = system: MCF7 breast
# [26] = system: MDA-MB-231 breast
# [27] = system: MDA-MB-435
# [28] = system: MDA-N
# [29] = system: MOLT-4 leukemia
# [30] = system: NCI-H226 lung
# [31] = system: NCI-H23 lung
# [32] = system: NCI-H460 lung
# [33] = system: NCI-H522 lung
# [34] = system: NCI/ADR-RES ovarian
# [35] = system: OVCAR-3 ovarian
# [36] = system: OVCAR-4 ovarian
# [37] = system: OVCAR-5 ovarian
# [38] = system: OVCAR-8 ovarian
# [39] = system: PC-3 prostate
# [40] = system: RPMI-8226 leukemia
# [41] = system: RXF 393 renal
# [42] = system: SF-268 CNS
# [43] = system: SF-295 CNS
# [44] = system: SK-MEL-2 melanoma
# [45] = system: SK-MEL-28 melanoma
# [46] = system: SK-MEL-5 melanoma
# [47] = system: SK-OV-3 ovarian
# [48] = system: SNB-19 CNS
# [49] = system: SNB-75 CNS
# [50] = system: SW-620 colon
# [51] = system: TK-10 renal
# [52] = system: U251 CNS
# [53] = system: UACC-257 melanoma
# [54] = system: UACC-62 melanoma
# [55] = system: UO-31 renal
smiles,measurement,setting,value
O=c1c2ccccc2nc(Cc2nc(-c3ccc(Cl)cc3)cs2)n1-c1ccc(Cl)cc1,TGI,[1],> 100 µM
same,TGI,[2],> 100 µM
same,TGI,[3],> 100 µM
same,TGI,[4],> 100 µM
same,TGI,[5],> 100 µM
same,TGI,[6],> 100 µM
same,TGI,[7],> 100 µM
same,TGI,[8],> 100 µM
same,TGI,[9],> 100 µM
same,TGI,[10],> 100 µM
same,TGI,[11],> 100 µM
same,TGI,[12],> 100 µM
same,TGI,[13],> 100 µM
same,TGI,[14],> 100 µM
same,TGI,[15],> 100 µM
same,TGI,[16],> 100 µM
same,TGI,[17],> 100 µM
same,TGI,[18],> 100 µM
same,TGI,[19],> 100 µM
same,TGI,[20],> 100 µM
same,TGI,[21],> 100 µM
same,TGI,[22],> 100 µM
same,TGI,[23],> 100 µM
same,TGI,[24],> 100 µM
same,TGI,[25],> 100 µM
same,TGI,[26],> 100 µM
same,TGI,[27],> 100 µM
same,TGI,[28],> 100 µM
same,TGI,[29],> 100 µM
same,TGI,[30],> 100 µM
same,TGI,[31],> 100 µM
same,TGI,[32],> 100 µM
same,TGI,[33],> 100 µM
same,TGI,[34],> 100 µM
same,TGI,[35],> 100 µM
same,TGI,[36],> 100 µM
same,TGI,[37],> 100 µM
same,TGI,[38],> 100 µM
same,TGI,[39],> 100 µM
same,TGI,[40],83.9 µM
same,TGI,[41],> 100 µM
same,TGI,[42],> 100 µM
same,TGI,[43],> 100 µM
same,TGI,[44],> 100 µM
same,TGI,[45],> 100 µM
same,TGI,[46],> 100 µM
same,TGI,[47],> 100 µM
same,TGI,[48],> 100 µM
same,TGI,[49],> 100 µM
same,TGI,[50],> 100 µM
same,TGI,[51],> 100 µM
same,TGI,[52],> 100 µM
same,TGI,[53],> 100 µM
same,TGI,[54],> 100 µM
same,TGI,[55],> 100 µM

# Reference: PubChem BioAssay (NCI)
